From PubChem BioAssay (NCI)
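Tested at 5 concentrations; 48 h exposure; 96-well plates; endpoints linearly interpolated, else capped at highest concentration. Abbreviation: GI50, concentration required for 50% inhibition of growth. TGI marks complete inhibition of growth.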

Legend:
Assay in all cases: inhibition of tumour cell growth, NCI panel, 48 h
[1] = test system: 786-0 renal
[2] = test system: A498 renal
[3] = test system: A549 NSCLC
[4] = test system: ACHN renal
[5] = test system: BT-549 breast
[6] = test system: CAKI-1 renal
[7] = test system: CCRF-CEM leukemia
[8] = test system: DU-145 prostate
[9] = test system: EKVX NSCLC
[10] = test system: HCC-2998 colon
[11] = test system: HCT-116 colon
[12] = test system: HCT-15 colon
[13] = test system: HOP-62 NSCLC
[14] = test system: HOP-92 NSCLC
[15] = test system: HS 578T breast
[16] = test system: HT29 colon
[17] = test system: K-562 leukemia
[18] = test system: KM12 colon
[19] = test system: LOX IMVI melanoma
[20] = test system: M14 melanoma
[21] = test system: MCF7 breast
[22] = test system: MDA-MB-231 breast
[23] = test system: MDA-MB-435
[24] = test system: MOLT-4 leukemia
[25] = test system: NCI-H23 lung
[26] = test system: NCI-H460 lung
[27] = test system: NCI-H522 lung
[28] = test system: NCI/ADR-RES ovarian
[29] = test system: OVCAR-3 ovarian
[30] = test system: OVCAR-4 ovarian
[31] = test system: OVCAR-8 ovarian
[32] = test system: PC-3 prostate
[33] = test system: RPMI-8226 leukemia
[34] = test system: SF-268 CNS
[35] = test system: SF-295 CNS
[36] = test system: SF-539 CNS
[37] = test system: SK-MEL-2 melanoma
[38] = test system: SK-MEL-28 melanoma
[39] = test system: SK-MEL-5 melanoma
[40] = test system: SK-OV-3 ovarian
[41] = test system: SN12C renal
[42] = test system: SNB-19 CNS
[43] = test system: SNB-75 CNS
[44] = test system: SW-620 colon
[45] = test system: T-47D breast
[46] = test system: TK-10 renal
[47] = test system: U251 CNS
[48] = test system: UACC-257 melanoma
[49] = test system: UACC-62 melanoma
[50] = test system: UO-31 renal
[51] = test system: COLO 205 colon
[52] = test system: IGROV1 ovarian
[53] = test system: NCI-H226 lung
[54] = test system: OVCAR-5 ovarian
[55] = test system: RXF 393 renal

O=C1c2ccccc2-c2c1c1ccccc1c(=O)n2CCCCl
GI50 [1]: 4.86 µM
TGI [1]: 18.2 µM
GI50 [2]: 7.88 µM
TGI [2]: 28.5 µM
GI50 [3]: 3.23 µM
TGI [3]: 16 µM
GI50 [4]: 3.03 µM
TGI [4]: 12.3 µM
GI50 [5]: 14.6 µM
TGI [5]: 58.3 µM
GI50 [6]: 3.63 µM
TGI [6]: 19.1 µM
GI50 [7]: 3.86 µM
TGI [7]: > 100 µM
GI50 [8]: 6.22 µM
TGI [8]: > 100 µM
GI50 [9]: 18.1 µM
TGI [9]: > 100 µM
GI50 [10]: 10.4 µM
TGI [10]: 96.6 µM
GI50 [11]: 3.65 µM
TGI [11]: 17.8 µM
GI50 [12]: 5.99 µM
TGI [12]: > 100 µM
GI50 [13]: 1.77 µM
TGI [13]: 6.57 µM
GI50 [14]: 16.8 µM
TGI [14]: 43.3 µM
GI50 [15]: 17.6 µM
TGI [15]: 73.5 µM
GI50 [16]: 37.2 µM
TGI [16]: > 100 µM
GI50 [17]: 12.7 µM
TGI [17]: > 100 µM
GI50 [18]: 34 µM
TGI [18]: > 100 µM
GI50 [19]: 6.78 µM
TGI [19]: 35.7 µM
GI50 [20]: 35.5 µM
TGI [20]: > 100 µM
GI50 [21]: 2.18 µM
TGI [21]: 62.4 µM
GI50 [22]: 11.4 µM
TGI [22]: 39.8 µM
GI50 [23]: 28 µM
TGI [23]: > 100 µM
GI50 [24]: 1.61 µM
TGI [24]: 4.38 µM
GI50 [25]: 15.7 µM
TGI [25]: 50.1 µM
GI50 [26]: 3.57 µM
TGI [26]: > 100 µM
GI50 [27]: 37.4 µM
TGI [27]: > 100 µM
GI50 [28]: 16.9 µM
TGI [28]: 73.3 µM
GI50 [29]: 3.23 µM
TGI [29]: 8.18 µM
GI50 [30]: > 100 µM
TGI [30]: > 100 µM
GI50 [31]: 9.28 µM
TGI [31]: 44.8 µM
GI50 [32]: 24.9 µM
TGI [32]: > 100 µM
GI50 [33]: 61.7 µM
TGI [33]: > 100 µM
GI50 [34]: 10.3 µM
TGI [34]: 80.8 µM
GI50 [35]: 6.34 µM
TGI [35]: 23.1 µM
GI50 [36]: 4.11 µM
TGI [36]: 21.5 µM
GI50 [37]: 47.4 µM
TGI [37]: > 100 µM
GI50 [38]: > 100 µM
TGI [38]: > 100 µM
GI50 [39]: 5.92 µM
TGI [39]: > 100 µM
GI50 [40]: 19.1 µM
TGI [40]: 62.2 µM
GI50 [41]: 12.1 µM
TGI [41]: 51.8 µM
GI50 [42]: 34.2 µM
TGI [42]: > 100 µM
GI50 [43]: 8.4 µM
TGI [43]: 36.6 µM
GI50 [44]: 8.75 µM
TGI [44]: > 100 µM
GI50 [45]: 22.5 µM
TGI [45]: > 100 µM
GI50 [46]: 3.26 µM
TGI [46]: 14.3 µM
GI50 [47]: 11 µM
TGI [47]: 31.5 µM
GI50 [48]: 12.6 µM
TGI [48]: 76.5 µM
GI50 [49]: 6.75 µM
TGI [49]: 23.9 µM
GI50 [50]: 6.47 µM
TGI [50]: 69.2 µM

COc1ccc(OC)c(C(Cc2ccnc3ccccc23)Cc2ccnc3ccccc23)c1
TGI [1]: > 10 µM
TGI [2]: > 10 µM
TGI [3]: > 10 µM
TGI [4]: > 10 µM
TGI [5]: > 10 µM
TGI [6]: > 10 µM
TGI [7]: > 10 µM
TGI [51]: > 10 µM
TGI [8]: > 10 µM
TGI [9]: > 10 µM
TGI [10]: > 10 µM
TGI [11]: > 10 µM
TGI [12]: > 10 µM
TGI [13]: > 10 µM
TGI [14]: > 10 µM
TGI [15]: > 10 µM
TGI [16]: > 10 µM
TGI [52]: > 10 µM
TGI [17]: > 10 µM
TGI [18]: > 10 µM
TGI [19]: > 10 µM
TGI [20]: > 10 µM
TGI [21]: > 10 µM
TGI [22]: > 10 µM
TGI [23]: > 10 µM
TGI [24]: > 10 µM
TGI [53]: > 10 µM
TGI [25]: > 10 µM
TGI [26]: > 10 µM
TGI [27]: > 10 µM
TGI [28]: > 10 µM
TGI [29]: > 10 µM
TGI [30]: > 10 µM
TGI [54]: > 10 µM
TGI [31]: > 10 µM
TGI [32]: > 10 µM
TGI [33]: > 10 µM
TGI [55]: > 10 µM
TGI [34]: > 10 µM
TGI [35]: > 10 µM
TGI [36]: > 10 µM
TGI [37]: > 10 µM
TGI [38]: > 10 µM
TGI [39]: > 10 µM
TGI [40]: > 10 µM
TGI [41]: > 10 µM
TGI [42]: > 10 µM
TGI [43]: > 10 µM
TGI [44]: > 10 µM
TGI [45]: > 10 µM
TGI [46]: > 10 µM
TGI [47]: > 10 µM
TGI [48]: > 10 µM
TGI [49]: > 10 µM
TGI [50]: > 10 µM
